Assay results: publication PMC5449093, “Selective inhibitors of trypanosomal uridylyl transferase RET1 establish druggability of RNA post-transcriptional modifications” (RNA Biology, 2016)
pIC50: −log10 of the molar value.

Legend:
T. brucei = assay: Treating T. brucei cultures with compounds, cell density counts; format: cell-based, Trypanosoma brucei; details: blood and insect forms; concentrations close to RET1 IC50 values (70μM and 2μM); Fig. S4
Procedure: Wild type blood form strain of trypanosomes were cultured to densities of 5 × 10^5 cells ml^−1 at 37 °C in HMI-9 medium, 1 % pen/strep, 10 % FCS, Puromycin 0.1 ug ml^−1 , zeocin 1 µg ml^−1. Test compounds in DMSO were added at varying concentrations (DMSO final concentration 1 %). The trypanosomes where then split 1/10 dilution and sub-cultured every 24 h to the same cell density (5 × 10^5 cells ml^−1). At 24 hour intervals, cell density measurements were performed using a hem cytometer. Test concentrations were determined by an initial dose finding experiment and compounds were tested at 0.2, 0.5 and 1 times a fatal dose. This was in the region of the IC50 for both compounds.

CID1 poly (U) polymerase [1] = assay: biochemical; parameters: species or system Schizosaccharomyces pombe; details: RET1 over CID1, calculated from IC50 values
Procedure: (§1) Poly (U) polymerase from Schizosaccharomyces pombe, was obtained from NEB (M0337S). […]
(§2) Duplicate reactions were set up with each containing, 0.2 units of Cid1 enzyme, NEB (M0337S) with UTP at final concentration of 18 µM, RNA 3 nM, and buffer 6 up to a final volume of 10 µl. The reaction was done at 37°C for 20 mins, then the enzyme heat inactivated at 65 °C for 10 mins.

CID1 poly (U) polymerase [2] = biological target: T1, CID1 poly (U) polymerase (Schizosaccharomyces pombe, UniProt O13833); assay: biochemical
T1 construct: purchased NEB M0337S
Procedure: as §1, §2

RET1 [3] = biological target: T2, RET1 (Trypanosoma brucei brucei, UniProt Q8WQX5, A749G/DEL18-18/G858D/N24H/V111I/W59S); assay: Luciferase coupled PPi assay, 384 well format, RET1; format: biochemical
T2 construct: Full-length RET1 protein (975aa) was expressed in E. coli as an N-terminal GST-tagged fusion protein; made in house; host or cells: E. coli BL21 (DE3)
Procedure: Reactions were made up in Corning® 384 Well Low Flange White Flat Bottom Polystyrene TC-Treated Micro plates (Product #3570). RET1 enzyme was added at 0.1 μl (0.2 mgml^−1), UTP (Thermo Scientific R0471 100 mM) and RNA substrate final concentrations were equal to their Km: 50 μM and 20 nM respectively.[18] The volume was made up to 10 μl with buffer 6 (Tris pH 7.5 10 mM, KCl 10 mM, DTT 1 mM, MgCl2 3.2 mM) and the reaction was incubated 20 mins at 25°C, then heat inactivated at 65°C for 10 mins. Test compounds were added in 0.5 μl of DMSO stock solution. The positive control included of 0.5 μl of DMSO. After a 10 min cooling period, 5 μl of each of detection and conversion reagents from PPiLight™ Inorganic Pyrophosphate Assay Kit (Lonza, LT07-610) were added. Luminescence was read with a Pherastar Plus micro plate reader. IC50 determinations were carried out in triplicate using the luciferase assay protocol in a dilution series of 1 mM to 99 nM.

RET1 [4] = biological target: T2, RET1; assay: Gel based assay for RET1 uridylylation activity (Sybr Gold); format: biochemical; details: for Inhibition of RET1 uridylation of RNA, gel verification: inhibitor 50 µM, Fig. 3; for Gel Assay (qualitative activity in gel based assay): qualitative class: inactive, moderate or strong inhibitor, inhibitor 50 µM per method
Procedure: Individual reactions were made up in 0.2 ml PCR tubes (Peqlab 820264-A). RET1 enzyme (see SI text) was added (0.05 μl, 0.2 mg ml^−1), UTP (Thermo Scientific R0471 100 mM) was added to a final concentration of 50 μM. RNA substrate (see SI text) was added to a final concentration of 200 nM. Inhibitors were added as required (0.5 μl in DMSO) to a final concentration of 50 μM. When no inhibitor was included 5 % (vol/vol) DMSO was added as control. The volume was made up to 10 μl in buffer D (Tris pH 7.5 10 mM, KCl 200 mM, DTT 1 mM, EDTA 0.5 mM MgCl2 3.2 mM) and the reaction was incubated for 20 mins at 27°C, then inactivated at 65°C for 10 mins. RNA loading dye (10 μl, NEB B363A) was added and tubes were heated (5 mins at 70°C), 10 μl was loaded onto 15 % TBE urea pre-cast gel (Invitrogen EC68852) and run in 1 x TBE buffer for 1.5 h at 130 V. Gels were incubated with Sybr Gold nucleic acid stain (Life Technologies S11494) for 20 mins, then imaged on an ultraviolet trans-illuminator (BioDoc-It imaging system, UVP). Experiments were carried out in duplicate for each inhibitor.

PC12 cells = test system: PC12 cells; parameters: method as in PMID 9256496; details: concentrations of 10 μM; cited from earlier work
[5] = RET1 IC50, PPi assay 384-well follow-up, UTP 50 µM, RNA 20 nM
[6] = RET1 Inhibition IC50, selectivity experiment, Table 2

SMILES	Toxicity to trypanosomes in culture (T. brucei)	RET1 Selectivity (fold) (CID1 poly (U) polymerase [1])	pIC50 (CID1 poly (U) polymerase [2])	pIC50 (RET1 [3]; [5])	pIC50 (RET1 [3]; [6])	Inhibition of RET1 uridylation of RNA, gel verification (RET1 [4])	Gel Assay (qualitative activity in gel based assay) (RET1 [4])	Toxicity to PC12 cells (PC12 cells)
O=C(Nc1ccc(S(=O)(=O)N2CCOCC2)cc1)c1cc(Cl)ccc1NS(=O)(=O)c1ccc(Cl)s1 [Compound 1, Ataciguat]	toxic to both blood and insect forms	66	2.32	4.15	4.14	effectively inhibit	Strong	–
O=C(c1cc(O)c(O)c(O)c1)c1ccc(O)c(O)c1O [Compound 2, exifone]	toxic to both blood and insect forms	43	4.06	5.70	5.70	effectively inhibit	Strong	not toxic
